Test: DU145 xenograft model, body weight
Format: in vivo, BALB/c nude mice
Conditions: 3 μmol/kg, by day 7
Protocol: All animal experiments were conducted in accordance with protocols approved by the Institutional Animal Care and Use Committee of Peking Union Medical College. Male BALB/c nude mice (6–8 weeks old) and female KM mice (6–8 weeks old) were purchased from Charles River Laboratories (Beijing, China) and maintained under specific pathogen-free conditions.
DU145 Prostate cancer model: DU145 cells (3×10^6 cells/mouse) were subcutaneously inoculated into the right flank of BALB/c nude mic. When tumors reached approximately 100 mm³, mice were randomly divided into four treatment groups (n=6/group): (a) Vehicle control; (b) CTX (3 μmol/kg); (c) CTX-TTHA (3 μmol/kg); (d) CTX-DTPA (3 μmol/kg). Treatments were administered via tail vein injection three times at 3-day intervals. Major organs were collected for histopathological examination after the final administration.

## CO[C@H]1C(=O)[C@]2(C)[C@@H](OC)C[C@H]3OC[C@@]3(OC(C)=O)[C@H]2[C@H](OC(=O)c2ccccc2)[C@]2(O)C[C@H](OC(=O)[C@H](O)[C@@H](NC(=O)OC(C)(C)C)c3ccccc3)C(C)=C1C2(C)C [CTX, Cabazitaxel]
  body weight loss: > 15%

From article PMC12689286, “Enhanced therapeutics of cabazitaxel via polycarboxylate conjugation: improved solubility, safety, and antitumor efficacy” (Frontiers in Immunology, 2025)
